PMC11385693, “Synthesis of ferrocenyl benzimidazole derivatives as novel anti-Toxoplasma gondii agents” (New Journal of Chemistry, 2024)
Values joined by “and” are separate entries in the source; they are usually repeats but may differ in a detail not shown here. Equal entries are not always repeated. Where two headings read alike, the source gives them in different places. Values belong to the compound of their own block, whether it stands above or below them.

How the values were obtained:
[1] = test system: RhΔKu80:mNeonGreen strain of T. gondii; assay: microbe, parasite or virus in culture; assay type: cell-based, Toxoplasma gondii
Method: Growth inhibition assays were carried out using the RhΔKu80:mNeonGreen strain of T. gondii, which expresses the mNeonGreen fluorescent protein.[56] Parasite growth inhibition was determined by measuring the fluorescence emission of parasite growth in increasing concentrations of compounds of interest.
T. gondii ΔKu80:mNeon tachyzoites were grown in human foreskin fibroblasts (HFFs) with Dulbecco's modified Eagle's medium (DMEM) supplemented with 3% heat inactivated foetal bovine serum (D3) as the culturing medium. Cells and parasites were maintained at 37 °C and 5% carbon dioxide (CO2).
EC50s were calculated as previously described.[56] Briefly, T. gondii ΔKu80:mNeon parasites were counted by haemocytometer and diluted to 25 000 parasites per mL in 40 mL of D3 media, to give an infection of 5000 parasites per well. The media from a black clear bottomed 96 well plate containing HFFs was then aspirated. 200 μL of uninfected D3 media was added to the top and bottom rows of wells (A and H) to serve as blanks. 200 μL of T. gondii containing D3 media was then added to the remaining wells. The parasites were allowed 2 hours to invade host cells, after which test compounds were added.
The media from the infected 96 well plates was then aspirated and 100 μL of D3 media added to each well, excluding column 12. The first 4 wells of column 12 were filled with 300 μL of drug supplemented D3 media, while the next 4 wells were filled with 300 μL of D3 media supplemented with a different drug. The drug supplemented D3 media was then serially diluted 1 : 3 across the plate, stopping at column 2 and disposing of the media, leaving all wells with 100 μL of media. Finally, the plates were closed and incubated at 37 °C with 5% CO2 for 4 days. After 4 days the fluorescence of each well on the plates was read at 594 nm emission using a PHERAstar FS microplate reader. Graphpad Prism 9 software was used to plot dose–response and determine inhibition of parasite growth.

[2] = Turbidimetric solubility assay; conditions: for solubility at 2 h: kinetic from dmso stock
Method: A single phosphate buffered saline (PBS) tablet (Sigma Aldrich) was dissolved in 200 mL of distilled water (dH2O) (25 °C) to obtain a PBS solution with 0.01 M phosphate buffer, 0.14 M NaCl and 0.003 M KCl.
Stock solutions of the compounds to be tested were prepared in DMSO at a concentration of 10 mM and filtered through syringe filters. Serial dilution of the stock solutions with DMSO was then carried out in a preparatory (prep) 96-well plate giving concentrations between 0.00 and 10.0 mM (0.00, 0.25, 0.50, 1.0, 2.0, 4.0, 8.0 and 10 mM). The solutions were then further diluted into 96-well assay plates containing DMSO, PBS or HEPES buffer by pipetting 4.00 μL of solution from the prep plate to the Assay plate containing 196 μL of DMSO or buffer, giving final concentrations between 0.00 and 200 μM (0.00, 5.00, 10.0, 20.0, 40.0, 80.0, 160 and 200 μM). The assay plates were incubated at 25.0 or 37.0 °C for two hours before their UV-vis absorbance was read at 620 nm with a SPECTROstar Nano microplate reader spectrophotometer. Blank readings were used to gain corrected readings by subtracting them from obtained absorbances for each compound concentration.

T. gondii parasites = assay: Determination of ROS formation by FACS (CellROX deep red); assay type: cell-based, Toxoplasma gondii; conditions: 66 μM, 18 hours, compared with untreated parasites
Method: Once it had been established that two of the synthesised ferrocenyl benzimidazole derivatives were biologically active, their potential mode of action was explored. Given the presence of the ferrocenyl moiety, and the cyclic voltammetry results, it was of interest to investigate whether the compounds induce ROS, which may provide an explanation for their anti-parasitic activity. Thus, cells heavily infected with parasites were incubated with target compounds for 18 hours, before isolating the parasites and staining them with CellRox deep red reagent. CellRox is an oxidation sensitive dye which is non-fluorescent in its reduced state but fluoresces bright red at 665 nm upon being oxidised by ROS. FACS was then used to quantify CellROX parasite florescence.[56] Parasites were incubated with ferrocene carboxylic acid (FcCOOH), and untreated parasites were used as controls.
6 cm dishes of host cells heavily infected with T. gondii were untreated or treated with 66 μM (second highest concentration used in growth inhibition assays) of test compounds for 18 hours. The dishes were then scratched and syringed, before filtering the solution into 10 mL falcon tubes to remove cell debris. The tubes were spun down for 10 minutes at 1500 rpm. The media was then removed from the tubes, and the pellet resuspended in 200 μL of PBS buffer. For each drug, 100 μL of the resuspended pellet was then placed into 2 FACS tubes, one which would then be stained with CellROX dye, and the other 100 μL of PBS added to act as an unstained control. A 1 : 125 dilution of CellROX stock solution was performed, and 100 μL of this solution added to the FACS tubes needing staining. Stained tubes were incubated at 37 °C for at least 15 min before analysis on a BD Celesta flow cytometer. Data was obtained using FACSDiva software with parasites being gated on forward scatter, side scatter and green fluorescence. FlowJo v10 software was used to plot the geometric mean of CellRox fluorescence from at least 5000 parasites on the Cy7 channel.

Cyclic voltammetry = assay type: physicochemical
Text: Ferrocene is known to undergo reversible oxidation and reduction, cycling between its 3^+ ferrocenium and the 2^+ ferrocene (Fc) states.[49,50] This redox behaviour leads to the generation of reactive oxygen species (ROS) through Fenton like reactions, which can in turn lead to parasite death.[51–53] Cyclic voltammetry was used to determine if the synthesised ferrocenyl derivatives had the potential to have an impact on the redox status of the parasite cells. Two different scan rates (25 and 90 mV s^−1) were used to ensure the reliability of the results, compared to ferrocene alone.

HEK293T cell line = conditions: 25 μM, MTT 48 hours
Method: Human prostatic epithelial cells (PNT1A) were cultured in Rosewell Park Memorial Institute (RPMI) media supplemented with 10% heat inactivated FBS. Both cell lines were incubated at 37 °C with 5% CO2. Both cell lines were obtained from ATCC.
The cells were allowed to recover overnight before the addition of compounds.
Stock solutions of the test compounds in DMSO were prepared and serially diluted in DMSO in a 96 well plate. […] 10 μL of the test compounds in media was then pipetted into the plates containing cells in triplicate. The cells were then incubated with the test compounds for 48 hours. After incubation, 10 μL of previously prepared MTT reagent was added to each well followed by incubation of the plates for 4 hours. 100 μL of solubilising agent was then pipetted into each well, and the plates incubated overnight. After overnight incubation the plates were read using a BioTek SYNERGY HTX multimode plate reader at 595 nm. Graphpad Prism 9 software was used to plot dose–response and determine cell viability.

[3] = Aqueous stability studies (UV-vis monitoring, ESI-MS follow-up); assay type: physicochemical; conditions: for Change of UV-vis spectrum over time (aqueous stability): PBS pH 7.4, HEPES pH 7.0 and acetate buffer pH 4.6, 37 °C, 18 hours, 50 μM
Method: The stability of complexes 14–17 in an aqueous environment was investigated. The stability experiments were performed in PBS (pH 7.4) and HEPES (pH 7.0) buffers, as well as in acidic acetate buffer (pH 4.6), by monitoring the UV-vis spectra of the compounds at 37 °C over an 18-hour period.
To further investigate the stability of 14, the PBS, HEPES and acetate buffer solutions were evaporated to dryness, and then analysed using electrospray ionisation mass spectrometry in the positive ionisation mode.
PBS and HEPES buffers were prepared as described above. An acetate buffer with a concentration of […] and a pH of 4.60 was prepared by dissolving 5.40 g (65.83 mmol) of sodium acetate in 50 mL of dH2O. The resulting solution was then titrated to a pH of 4.60 with glacial acetic acid and made up to 100 mL with dH2O.
1 mM stock solutions of the synthesised target compounds in MeOH were prepared. 1.90 mL of buffer (PBS, HEPES or acetate buffer) was pipetted into cuvettes followed by the addition 100 μL of test compound stock solutions, diluting them to a final concentration of 50 μM. The cuvettes were then stoppered, inverted to mix the solution, and placed in an Agilent Cary 3500 UV-vis spectrophotometer as fast as possible. Blank solutions in matched cuvettes were also prepared by adding 100 μL of MeOH to 1.9 mL of buffer. The solutions in all the cuvettes were stirred at 400 rpm ensure proper mixing. UV spectra were then recoded every 5 minutes for 18 hours with a spectral width of 200–1100 nm to monitor the stability of the test compounds.

[4] = T. gondii ΔKu80:mNeon in HFFs, 4 days, highest concentration 100 μM, NA = not active at the maximum tested concentration, three biological replicates in triplicate, read-out: EC50
[5] = T. gondii ΔKu80:mNeon in HFFs, 4 days, highest concentration 100 μM, NA = not active at the maximum tested concentration, three biological replicates in triplicate

SMILES: CCc1nc(N)nc(N)c1-c1ccc(Cl)cc1 [Pyrimethamine]
EC50 [1, 4]: 13.8 µM
EC50 ([1]; Toxoplasma gondii, 96 h, T. gondii ΔKu80:mNeon in HFFs, 4 days, highest concentration 100 μM, NA = not active at the maximum tested concentration, three biological replicates in triplicate, read-out: EC50): 13.8 µM

SMILES: Nc1ccc(S(=O)(=O)Nc2ncccn2)cc1 [Sulfadiazine]
EC50 ([1]; Toxoplasma gondii, 96 h): 2.56 µM

SMILES: O=C(NCCn1cnc2ccccc21)[c-]1cccc1.[Fe+2].c1cc[cH-]c1 [Compound 15]
Solubility range ([2]; HEPES (pH 7.0), 25 °C): 10-20 µM and 4-7 µg/mL
Solubility class ([2]; HEPES (pH 7.0), 37 °C): moderate (a solubility of 10–60 μg mL^−1 is considered moderate)
Solubility range ([2]; HEPES (pH 7.0), 37 °C): 20-40 µM and 7–15 µg/mL
Solubility range ([2]; PBS (pH7.4), 25 °C): 10-20 µM and 4-7 µg/mL
Solubility range ([2]; PBS (pH7.4), 37 °C): 10-20 µM and 4-7 µg/mL
ROS formation in treated parasites (CellRox red fluorescence) (T. gondii parasites): triggered the formation of ROS
E 1/2 (Cyclic voltammetry; Run1, scan rate 25 mV s^−1): 653 mV
ΔEp (Cyclic voltammetry; Run1, scan rate 25 mV s^−1): 105 mV
E 1/2 (Cyclic voltammetry; Run2, scan rate 90 mV s^−1): 643 mV
ΔEp (Cyclic voltammetry; Run2, scan rate 90 mV s^−1): 78 mV
EC50 [1, 4]: 17.9 µM
Cell survival / % cell viability (HEK293T cell line): 50%
Change of UV-vis spectrum over time (aqueous stability) [3]: remained unchanged

SMILES: O=C(O)[c-]1cccc1.[Fe+2].c1cc[cH-]c1 [FcCOOH, ferrocene carboxylic acid, reference compound]
ROS formation in treated parasites (CellRox red fluorescence) (T. gondii parasites): only showed slightly more ROS present than untreated parasites
E 1/2 (Cyclic voltammetry; Run1, scan rate 25 mV s^−1): 688 mV
ΔEp (Cyclic voltammetry; Run1, scan rate 25 mV s^−1): 89 mV
E 1/2 (Cyclic voltammetry; Run2, scan rate 90 mV s^−1): 689 mV
ΔEp (Cyclic voltammetry; Run2, scan rate 90 mV s^−1): 71 mV
EC50 [1, 5]: no activity

SMILES: O=C(NCCn1cnc2ncccc21)[c-]1cccc1.[Fe+2].c1cc[cH-]c1 [Compound 16]
Solubility range ([2]; HEPES (pH 7.0), 25 °C): 20-40 µM and 7-15 µg/mL
Solubility class ([2]; HEPES (pH 7.0), 37 °C): poor (solubility <10 μg mL^−1 are considered to have poor solubility)
Solubility range ([2]; HEPES (pH 7.0), 37 °C): 10-20 µM and 4–7 µg/mL
Solubility range ([2]; PBS (pH7.4), 25 °C): 10-20 µM and 4-7 µg/mL
Solubility range ([2]; PBS (pH7.4), 37 °C): 10-20 µM and 4-7 µg/mL
ROS formation in treated parasites (CellRox red fluorescence) (T. gondii parasites): not
E 1/2 (Cyclic voltammetry; Run1, scan rate 25 mV s^−1): 632 mV
ΔEp (Cyclic voltammetry; Run1, scan rate 25 mV s^−1): 99 mV
E 1/2 (Cyclic voltammetry; Run2, scan rate 90 mV s^−1): 642 mV
ΔEp (Cyclic voltammetry; Run2, scan rate 90 mV s^−1): 69 mV
Change of UV-vis spectrum over time (aqueous stability) [3]: remained unchanged

solubility at 2 h ([2]; HEPES buffer, 25 °C, pH 7, aqueous buffer): < 5 µM and < 3 µg/mL
solubility at 2 h ([2]; HEPES buffer, 37 °C, pH 7, aqueous buffer): < 5 µM and < 3 µg/mL
solubility at 2 h ([2]; PBS buffer, 25 °C, pH 7.4, aqueous buffer): < 5 µM and < 3 µg/mL
solubility at 2 h ([2]; PBS buffer, 37 °C, pH 7.4, aqueous buffer): < 5 µM and < 3 µg/mL
SMILES: COC(=O)[C@H]1[C@H]2C[C@@H]3c4[nH]c5cc(OC)ccc5c4CCN3C[C@H]2C[C@@H](OC(=O)c2cc(OC)c(OC)c(OC)c2)[C@@H]1OC [Reserpine, reference compound]

SMILES: O=C(NCCn1c(-c2ccccc2)nc2ccccc21)[c-]1cccc1.[Fe+2].c1cc[cH-]c1 [Compound 14]
Solubility range ([2]; HEPES (pH 7.0), 25 °C): 20-40 µM and 9-18 µg/mL
Solubility class ([2]; HEPES (pH 7.0), 37 °C): poor (solubility <10 μg mL^−1 are considered to have poor solubility)
Solubility range ([2]; HEPES (pH 7.0), 37 °C): 5-10 µM and 2–4 µg/mL
Solubility range ([2]; PBS (pH7.4), 25 °C): 10-20 µM and 4-9 µg/mL
Solubility range ([2]; PBS (pH7.4), 37 °C): 10-20 µM and 4-9 µg/mL
E 1/2 (Cyclic voltammetry; Run1, scan rate 25 mV s^−1): 638 mV
ΔEp (Cyclic voltammetry; Run1, scan rate 25 mV s^−1): 89 mV
E 1/2 (Cyclic voltammetry; Run2, scan rate 90 mV s^−1): 641 mV
ΔEp (Cyclic voltammetry; Run2, scan rate 90 mV s^−1): 75 mV
Change of UV-vis spectrum over time (aqueous stability) [3]: showed reduced intensity over time
Stability in buffer by ESI-MS of evaporated buffer solutions ([3]; PBS, HEPES and acetate buffer, molecular ion peak present): remained intact and was stable

SMILES: [Fe+2].c1cc[cH-]c1.c1cc[cH-]c1 [Fc, ferrocene, reference compound]
E 1/2 (Cyclic voltammetry; Run1, scan rate 25 mV s^−1): 451 mV
ΔEp (Cyclic voltammetry; Run1, scan rate 25 mV s^−1): 108 mV
E 1/2 (Cyclic voltammetry; Run2, scan rate 90 mV s^−1): 453 mV
ΔEp (Cyclic voltammetry; Run2, scan rate 90 mV s^−1): 83 mV

SMILES: O=C(Cl)[c-]1cccc1.[Fe+2].c1cc[cH-]c1 [FcCOCl]
EC50 [1, 5]: no activity
